According to patent US8716355B2, “Hydroxylated tolans and related compounds in the treatment of a cancer” (Kent State University, priority 2007, dated 2014):

Legend:
rat-organ homogenates [1] = conditions: cited from earlier work
rat-organ homogenates [2] = conditions: cited from earlier work; remark: listed apart in the source
rat erythrocyte (RBC) = conditions: cited from earlier work
Vero cells = assay: Cytotoxicity (CD50) on Vero cells; format: cell-based; conditions: 48 hours of exposure
Source text: See Example II for tumor cell cytotoxicity of these compounds. […] NAB group 32 contains two compounds, Tolan-2 (also designated herein as KST-201) and Stil-2. Based on the NAB, they were classified as topological isomers. However, chemically they differ because Stil-2, a […], contained a double bonded linker, while Tolan-2 contained a triple bonded linker. The cytotoxicity of the two molecules on Vero cells differed markedly: Tolan-2 was less toxic than Stil-2.

HSV-1 = HSV-1 replication in infected Vero cells (plaque assay); format: cell-based, Herpes Simplex Virus-Type 1; conditions: at CD50, 75% and 50% of CD50; 24, 48, 72 h
Method: For this purpose HSV-1 replication at 24, 48 and 72 h was examined in the presence or absence of varying concentrations of the polyphenol.
The SI is the ratio of the CD50 divided by a selected inhibitory concentration (IC %).
Viral inhibition by Tolan-3 appeared to occur after viral entry into cells. […] Subsequently, the compound was removed and replaced with culture medium alone, and the incubated continued for 48 or 72 more hrs. In a second experiment, HSV-1 infected Vero cells were incubated with 350 μM Tolan-3 for 48 h. Thereafter, the Tolan-3 was removed and replaced by medium and the incubation continued for an additional 24 h. Viral titers were calculated by a standard plaque assay.

prostate cancer = assay: Prostate cancer patients (Example VIII A); format: in vivo, human; conditions: daily 10 μg to 5 mg/Kg; no significant differences between the four groups
Method: A group of 40 men aged 55-75 suffering from prostate cancer receive a daily dosage of between 10 μg and 5 mg/Kg body weight of KST-201, KST-213, KST-301 or KST-401 (10 patients per compound). Examination of the patients by clinical, radiographic and histopathological tests show significant shrinkage in tumors, and signs of cell death in 38% of the patients; there are no significant differences between the four treatment groups.

bladder cancer = assay: Bladder cancer patients (Example VIII B); format: in vivo, human; conditions: intravenous 10 μg to 5 mg/kg over three months; for Patients with significant remission: no differences between compounds
Method: A group of 20 men and 20 women aged 50-75 with bladder cancer are treated by intravenous injection of between 10 μg and 5 mg/kg of KST-201, KST-213, KST-301 or KST-401. Each compound is given to a group of 5 men and 5 women) over a period of three months. Clinical, radiographic and histopathological tests show significant remission in 35% of patients, accompanied by signs of cell death in 45%. There are no significant differences between the results with the four compounds.

breast cancer = assay: Breast cancer prevention, skin patch (Example VIII C); format: in vivo, human; conditions: transdermal patch 10 mg to 100 mg daily, one-year study
Method: This study investigates whether KST-201, KST-213, KST-301 and KST-401 administered transdermally each day through a skin patch aid in preventing breast cancer or metastatic cancer following cancer therapy. Patches are prepared with a lipophilic carrier which is readily absorbed through the skin (glycerol cold cream containing glycerin and peanut oil). The HT compound is mixed with the lipophilic cream such that each patch comprises 10 mg to 100 mg of active compound. The patch is applied to the skin each day, and rapid absorption occurs. After two hours, the patch is removed.

ovarian cancer = assay: Ovarian cancer patients (Example VIII D); format: in vivo, human; conditions: daily gelatin capsule 200 mg
Method: A study is carried out in a group of 40 women with ovarian cancer of various grades to determine the effect of treatment with compounds of KST-201, KST-213, KST-301 and KST-401. The administration protocol involves daily administration of a gelatin capsule containing 200 mg of active compound.

colon cancer = assay: Colon cancer patients (Example VIII E); format: in vivo, human; conditions: for Dissemination of the tumors: daily bolus injections (intravenous or intramuscular) of 2 g; for Cancer marker carcinoembryonic antigen (CEA) / Progression of the tumor: intravenous infusion 2 g daily for three weeks
Method: Eight patients suffering from advanced colon cancer are treated daily for three weeks with an intravenous infusion of 2 g of the compounds KST-201, KST-213, KST-301 or KST-401 dissolved in saline. Two patients are assigned to each compound. The compounds are dissolved in sterile saline. […] Progression of the tumor is also arrested over the treatment period.
Another eight patients with terminal colon cancer are treated by daily bolus injections (intravenous or intramuscular) of 2 g of KST-201, KST-213, KST-301 or KST-401.

Mushroom tyrosinase = assay: Inhibition of mushroom tyrosinase activity; format: biochemical; conditions: concentration not given
Method: All chemical used for reagents were purchased from Sigma Chemical Company. KST201 at each tested concentration (1000, 250 and 100 μM) was dissolved in 10% ethanol from a master mixture of the drug prepared at 0.1M in 100% ethanol.
Mushroom tyrosinase (Sigma) was diluted in 50 mM phosphate buffer, pH 6.5 to yield a concentration of 16 U/μl. […] A master mix containing 0.5 mM L-DOPA [3,4-dihydroxy-1-phenylalanine], 10 mM Sodium L-tyrosine in 50 mM phosphate buffer, pH 6.5 was prepared. The KST-201 dilutions were preincubated with the enzyme for 20 minutes. The samples were pipetted into 24 well plates and the master mixture added quickly. The reaction was read using a kinetic format in which wells were read every 30 seconds over a course of 10 minutes at a wavelength of 475 nm using a Synergy HT Plate reader. A kinetic curve was generated for each sample compared to a total reaction with mushroom tyrosinase without a drug (total).

SMILES	Inhibition (%) of Fe2+ − VitC induced level of MDA at 15 μM, In rat brain (rat-organ homogenates [1]) [%]	Inhibition (%) of Fe2+ − VitC induced level of MDA at 15 μM, In rat kidney (rat-organ homogenates [1]) [%]	Inhibition (%) of Fe2+ − VitC induced level of MDA at 15 μM, In rat liver (rat-organ homogenates [1]) [%]	Inhibition (%) of autooxidation MDA level at 7.5 μM, In rat brain (rat-organ homogenates [2]) [%]	Inhibition (%) of autooxidation MDA level at 7.5 μM, In rat kidney (rat-organ homogenates [2]) [%]	Inhibition (%) of autooxidation MDA level at 7.5 μM, In rat liver (rat-organ homogenates [2]) [%]	Inhibition (%) of RBC hemolysis induced by H2O2 at 4 μM (rat erythrocyte (RBC)) [%]	CD50 (Vero cells) [µM]	Log CD50 (Vero cells)	other results
Oc1cc(O)cc(/C=C/c2ccccc2)c1 [trans-3,5-Dihydroxystilbene]	12.24	0.62	24.82	−5.24	14.91	−5.38	19.97	–	–	–
Oc1ccc(/C=C/c2ccccc2)cc1O [trans-3,4-Dihydroxystilbene]	96.68	89.23	99.27	–	–	–	97.58	–	–	–
Oc1ccc(/C=C/c2ccc(O)cc2)cc1 [trans-4,4′-Dihydroxystilbene]	90.66	85.23	68.37	85.31	62.11	89.23	67.17	–	–	–
Oc1ccc(/C=C/c2ccccc2)cc1 [Stil-1]	–	–	–	–	–	–	–	131	2.12	–
Oc1ccc(/C=C/c2ccccc2)cc1 [trans-4-Hydroxystilbene]	43.36	29.23	32.85	6.64	19.88	−2.31	-5.14	–	–	–
Oc1ccc(/C=C/c2ccc(O)cc2)cc1 [Stil-2]	–	–	–	–	–	–	–	53.3	1.73	Effect on HSV-1 viral replication in Vero cells (in words) (HSV-1): no substantial reduction in viral replication
Oc1cc(O)cc(/C=C/c2cc(O)cc(O)c2)c1 [Stil-4, tetrahydroxystilbene]	–	–	–	–	–	–	–	>200	2.30	–
Oc1ccc(C#Cc2ccc(C(F)(F)F)cc2)cc1 [KST-213, 4-hydroxy-4′-trifluoromethyltolan]	–	–	–	–	–	–	–	48.2	1.68	Effect on HSV-1 viral replication in Vero cells (in words) (HSV-1): substantially inhibited; Patients with significant shrinkage in tumors, and signs of cell death (prostate cancer): 38%; Patients with signs of cell death (bladder cancer): 45%; Patients with significant remission (bladder cancer): 35%; Breast cancer or metastatic cancer in high-risk group (breast cancer): does not show any evidence of breast cancer or other metastatic cancer; Rate of production of ovarian cancer markers (Muc-1, Sp17) (ovarian cancer): significant decrease; Tumor growth during study period (ovarian cancer): Tumors regress or show no further growth; Dissemination of the tumors (colon cancer): dissemination of the tumors is diminished; Cancer marker carcinoembryonic antigen (CEA) (colon cancer): significant reduction; Progression of the tumor (colon cancer): arrested
Oc1cc(O)cc(C#Cc2cc(O)cc(O)c2)c1 [KST-401, 3,3′,5,5′-tetrahydroxytolan]	–	–	–	–	–	–	–	103	2.01	Effect on HSV-1 viral replication in Vero cells (in words) (HSV-1): substantial viral inhibition; % inhibition of mushroom tyrosinase activity (Mushroom tyrosinase): 22.7±6.5%; Patients with significant shrinkage in tumors, and signs of cell death (prostate cancer): 38%; Patients with signs of cell death (bladder cancer): 45%; Patients with significant remission (bladder cancer): 35%; Breast cancer or metastatic cancer in high-risk group (breast cancer): does not show any evidence of breast cancer or other metastatic cancer; Rate of production of ovarian cancer markers (Muc-1, Sp17) (ovarian cancer): significant decrease; Tumor growth during study period (ovarian cancer): Tumors regress or show no further growth; Dissemination of the tumors (colon cancer): dissemination of the tumors is diminished; Cancer marker carcinoembryonic antigen (CEA) (colon cancer): significant reduction; Progression of the tumor (colon cancer): arrested
Oc1ccc(/C=C/c2ccccc2)c(O)c1 [trans-2,4-Dihydroxystilbene]	55.19	39.08	42.58	30.07	32.27	42.31	43.72	–	–	–
Oc1ccc(/C=C/c2ccc(O)cc2O)cc1 [trans-2,4,4′-Trihydroxystilbene]	94.40	87.69	92.46	90.91	66.46	93.85	81.85	–	–	–
